Measured values from the METLIN SMRT retention time set (Domingo-Almenara et al. 2019).

Assay: gradient 5% acetonitrile 3 min, to 50% in 2 min, to 85% in 15 min, held 3 min, 100 µL/min
Details: column: Zorbax Extend-C18 2.1 x 50 mm; eluents: water / acetonitrile, 0.1% formic acid
Outline: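 Retention time was recorded from adduct peaks, which were picked computationally and each inspected manually. Pure standards ran in mixtures of ~100 molecules on HPLC coupled to a quadrupole time-of-flight mass spectrometer, in positive and negative ionization mode, through a Zorbax Extend-C18 column (2.1 × 50 mm, 1.8 μm) at 100 μL/min. Eluents were water and acetonitrile, each with 0.1% formic acid.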

| Structure (SMILES) | RP-LC retention time [s] |
| --- | --- |
| COc1ccc(C2CC(=O)N(c3ccc4c(c3)OCCO4)C(=O)C2)cc1 | 833 |
| Cc1ccc2[nH]cc(CCN3CC(C(=O)Nc4ccc5c(c4)OCO5)CC3=O)c2c1 (stereo unspecified) | 783 |
| CCn1c(=O)sc2cc(S(=O)(=O)N3CCC(C(=O)Nc4ccc(C(C)C)cc4)CC3)ccc21 | 985 |
| CN(C1CCc2nn(CC3CC3)c(=O)n2CC1)S(=O)(=O)c1cccc(Cl)c1 (stereo unspecified) | 818 |
| CN1CCN(c2ncc(C(=O)O)c(-c3ccccc3)n2)CC1 | 562 |
| CC(C)Cn1ccc2c(cc(C(=O)NCCCN3CCOCC3)n2C)c1=O | 594 |
| CN1CCCc2cc(C(CNC(=O)C(=O)NCc3ccc(F)cc3)N3CCOCC3)ccc21 (stereo unspecified) | 569 |
| COC(=O)C1=C(CN2CCOCC2)NC(=O)NC1c1ccccc1C (stereo unspecified) | 590 |
| Fc1ccc(-c2cc(CN3CCCC3)[nH]n2)cc1 | 594 |
| CCc1cc(=O)n(Cc2ncc(C)c(OC)c2C)c(N2CCOCC2)n1 | 620 |
| Cc1cccc(N2CCN(C(=O)c3cn4cc(C)ccc4n3)CC2)c1 | 702 |
| COc1ccc(-n2c(CN3CCN(C(=O)NC(C)C)CC3)nc3cccnc32)cc1 | 595 |
| O=C1NC(=S)S/C1=C\c1cc(Br)ccc1OCc1ccccc1Br | 1270 |
| O=C(NCc1ccc(N2CCCCCC2)nc1)c1cncc(Br)c1 | 603 |
| Cc1cccc2nnc(N3CCCC(C(=O)Nc4ccc5c(c4)OCO5)C3)n12 (stereo unspecified) | 664 |
| O=C(Cn1ccc2ccccc21)NCCn1nc(-n2ccnc2)ccc1=O | 546 |
| O=C(NCc1ccc2c(c1)CCN2C(=O)c1ccccc1)C1CCN(S(=O)(=O)N2CCCC2)CC1 | 829 |
| NC(=O)C1CCN(C(=O)c2ccc(F)cc2)CC1 | 589 |
| O=C(CN1C(=O)CCCc2ccccc21)NCc1ccc(F)c(Cl)c1 | 859 |
| Cc1nnsc1C(=O)Nc1ccc([N+](=O)[O-])cc1C(F)(F)F | 868 |

| Structure (SMILES) | RP-LC retention time [s] |
| --- | --- |
| O=C(NCCS(=O)(=O)N1CCN(c2ccc(F)cc2)CC1)c1cccc([N+](=O)[O-])c1 | 834 |
| Cn1ccc2cc(S(=O)(=O)N3CCC(C(=O)N4CCN(c5ncccn5)CC4)CC3)ccc21 | 821 |
| CCCc1ccc(S(=O)(=O)N2CCC3(CC2)NCCN=C3NCc2ccccc2OC)cc1 | 836 |
| Cc1ccc(NS(=O)(=O)c2cc3c(s2)CCN(C(=O)C2CC2)C3)c(F)c1 | 828 |
| CCn1cnc(S(=O)(=O)N2CCC(C(=O)N3CCN(c4cc(C)ccc4C)CC3)CC2)c1 | 878 |
| Cc1ccc(Cl)cc1N1CCN(C(=O)c2[nH]c(C)c(S(=O)(=O)N3CCCC3)c2C)CC1 | 1060 |
| Cc1ccc(C)c(Cn2nc3ccc(S(=O)(=O)N4CCC(C)CC4)cn3c2=O)c1 | 1130 |
| CCC1(CC)NC(=O)N(CC(=O)Nc2ccc(C(=O)OC)cc2)C1=O | 671 |
| COc1cccc(S(=O)(=O)N2CCC3(CC2)c2nccn2CCN3C)c1 | 607 |
| Cc1cc(F)ccc1NS(=O)(=O)c1cc(-c2cc(C(F)(F)F)on2)sc1C | 1160 |
| CCC(C)NC(=O)NCCC1CCN(S(=O)(=O)c2ccc(F)cc2)CC1 (stereo unspecified) | 814 |
| CCC(=O)c1cn(CC(=O)NCc2ccc3c(c2)OCCCO3)c2ccccc12 | 794 |
| CCN(CC)CCCNC(=O)c1ccc(-c2ccc3c(c2)CCN3C(C)=O)cc1 | 612 |
| CCn1ccc(C(=O)NC2CCCN(c3cc(N(C)C)ncn3)C2)n1 (stereo unspecified) | 590 |
| CCOC(=O)C1C(=O)NC(N2CCN(Cc3ccccc3)CC2)=NC1c1ccco1 (stereo unspecified) | 578 |
| CCN(CC)C(=O)CS(=O)Cc1cnn(-c2ccccc2)c1-n1cccc1 (stereo unspecified) | 754 |
| Cc1cc(N2CCC(C)CC2)n2nc(CN3CCN(C(C)C)CC3)nc2n1 | 590 |
| CN(C(=O)Cc1nnc2cc(-c3nc(C4CC4)no3)ccn12)C1CCCCC1 | 1010 |
| Cc1cc(C)n2nc(SCC(=O)Nc3cccc(Cl)c3)nc2n1 | 789 |
| COc1ccc(NC(=O)N2CCC(N3CCN(Cc4ccccc4)C3=O)CC2)c(OC)c1 | 796 |

The remaining lines, values ahead:

| RP-LC retention time [s] | Structure (SMILES) |
| --- | --- |
| 1050 | O=C(Cc1cccs1)N1CCCC1c1nc(-c2cccc(Cl)c2)no1 (stereo unspecified) |
| 834 | CCN(CC)c1ccc(Nc2nc(-c3ccc(F)c(C)c3)cs2)cc1 |
| 998 | Cc1nc2cc(-c3noc(-c4ccc5ccccc5n4)n3)ccc2o1 |
| 1380 | Cc1cc(C)c2c(=O)n(Cc3nc(-c4ccccc4)oc3C)c(=O)n(Cc3ccco3)c2n1 |
| 900 | COCCCNC(=O)COc1ccccc1-c1nnc(-c2ccccc2)o1 |
| 1040 | CCN1C(=O)COc2ccc(-c3nc(NC(=O)c4cccc(OC)c4)sc3C)cc21 |
| 956 | Cc1ccc(-c2cn3c(CC(=O)N4CCCc5ccccc54)csc3n2)cc1C |
| 696 | COc1ccc(CNC(=O)c2ccc3c(c2)CC(=O)N3C)cc1 |
| 690 | Cc1ccc(-c2nc3ccccn3c2Nc2ccc3c(c2)OCCO3)cc1 |
| 980 | O=C(CN1C(=O)CC(c2cccs2)=Nc2ccccc21)Nc1ccccc1Cl |
| 869 | COc1ccc(-c2noc(CSc3nccn3-c3ccccc3)n2)cc1 |
| 951 | COc1ccc(C(=O)N2CCc3cc(-c4csc(C)n4)ccc32)cc1F |
| 766 | COc1ccc(CN2CN=C(Nc3nc(C)c4cc(C)ccc4n3)NC2)cc1 |
| 718 | CCc1ccccc1S(=O)(=O)NCc1cccnc1-c1ccc(OC)cc1 |
| 698 | Cc1ccc(NC(=O)Cc2nnc(-c3cnccn3)o2)cc1 |
| 742 | CCN1C(=O)c2cccnc2Sc2cc(CNC(=O)Cc3ccc(OC)cc3)ccc21 |
| 1320 | CCCN(C(=O)c1ccccc1C)c1nc(-c2ccccc2)cs1 |
| 988 | COCCNC(=O)Cn1cccc1-c1nc(-c2ccc(Cl)cc2)cs1 |
| 616 | O=C(O)c1nnn(-c2cccc(F)c2)c1-c1ccncc1 |
| 946 | O=C(c1cccs1)N1CCCC1c1nc(-c2ccccc2)no1 (stereo unspecified) |
| 653 | O=C(c1ccc(F)c(F)c1)N1CCCC1c1nc(-c2ccccc2)no1 (stereo unspecified) |
| 1010 | CCc1nn2c(CNS(=O)(=O)Cc3cccc(Cl)c3)c(-c3ccccc3)nc2s1 |
| 701 | CC(C)n1c(CCNC(=O)c2cccc(Cl)c2)nc2cccnc21 |
| 849 | Cc1cc(-c2nnc(-c3ccco3)o2)c(C)n1CC(=O)NCc1ccc(F)cc1 |
| 822 | CCc1nc(-c2cn(Cc3ccc(F)cc3)nn2)no1 |
| 1190 | O=S(=O)(c1ccc(-c2noc(-c3cccc(Br)c3)n2)cc1)N1CCOCC1 |
